Values quoted from earlier work in patent publication US8106000B2, “Colonic delivery of adsorbents” (Da Volterra, priority 2005, dated 2012).

Settings: oral doses 1 to […]

O=C(O)c1cn(C2CC2)c2cc(N3CCNCC3)c(F)cc2c1=O [ciprofloxacin]
expected residual ciprofloxacin in feces (% of oral doses): ≤ 25%
